Experimental data reported in patent US5071955A, “Octopeptide exhibiting antimypertensive activity” (Nippon Suisan Kaisha, Ltd., priority 1988, dated 1991).
Peptide text beside a SMILES is read from it.

Experiments:
[1] = target: Angiotensin I converting enzyme (ACE) (Homo sapiens, UniProt P12821); test: Angiotensin I converting enzyme (ACE) inhibitory activity, method of Cushman and Cheung; type: biochemical; conditions: Hip-His-Leu substrate, pH 8.3, 37° C., 30 min
Procedure: A prescribed amount of sample was added to a solution composed of 1-10 mU ACE, 2.5 mM Hip-His-Leu substrate (produced by Peptide Research Institute), 100 mM potassium-phosphate buffer (pH 8.3), and 300 mM NaCl. 0.25 ml of this mixture was incubated at 37° C. for 30 min, and the enzymatic reaction was stopped by adding 0.25 ml of 1N HCl. 1.5 ml of ethylacetate was then added and the mixture was vigorously shaken for 10 second, following which the hippuric acid produced was extracted. […] A blank (ODsbl) was made by adding 1N HCl prior to incubation, and the difference in absorbance, ODs-ODsbl, was determined. […] ACE inhibitory activity was calculated using the following equation: [formula]

ICR mice = test: Intravenous LD50 in ICR mice; type: in vivo; conditions: in physiological saline, 6 week old male and female ICR mice, 2 week observation
Procedure: (§1) The peptide of formula (I) prepared in Example 2 was dissolved in physiological saline.
(§2) Various concentrations of the peptide in physiological saline were intravenously administered to test animal groups each consisting of 6 week old male (10/group) or female (10/group) ICR mice, or 6 week old male (10/group) or female (10/group) Wistar rats. The LD50 value was determined after a 2 week observation period.

Wistar rats = test: Intravenous LD50 in Wistar rats; type: in vivo; conditions: in physiological saline, 6 week old male and female Wistar rats, 2 week observation
Procedure: as §1, §2

Angiotensin I converting enzyme (ACE), sequence (P12821 30-1306, species assumed): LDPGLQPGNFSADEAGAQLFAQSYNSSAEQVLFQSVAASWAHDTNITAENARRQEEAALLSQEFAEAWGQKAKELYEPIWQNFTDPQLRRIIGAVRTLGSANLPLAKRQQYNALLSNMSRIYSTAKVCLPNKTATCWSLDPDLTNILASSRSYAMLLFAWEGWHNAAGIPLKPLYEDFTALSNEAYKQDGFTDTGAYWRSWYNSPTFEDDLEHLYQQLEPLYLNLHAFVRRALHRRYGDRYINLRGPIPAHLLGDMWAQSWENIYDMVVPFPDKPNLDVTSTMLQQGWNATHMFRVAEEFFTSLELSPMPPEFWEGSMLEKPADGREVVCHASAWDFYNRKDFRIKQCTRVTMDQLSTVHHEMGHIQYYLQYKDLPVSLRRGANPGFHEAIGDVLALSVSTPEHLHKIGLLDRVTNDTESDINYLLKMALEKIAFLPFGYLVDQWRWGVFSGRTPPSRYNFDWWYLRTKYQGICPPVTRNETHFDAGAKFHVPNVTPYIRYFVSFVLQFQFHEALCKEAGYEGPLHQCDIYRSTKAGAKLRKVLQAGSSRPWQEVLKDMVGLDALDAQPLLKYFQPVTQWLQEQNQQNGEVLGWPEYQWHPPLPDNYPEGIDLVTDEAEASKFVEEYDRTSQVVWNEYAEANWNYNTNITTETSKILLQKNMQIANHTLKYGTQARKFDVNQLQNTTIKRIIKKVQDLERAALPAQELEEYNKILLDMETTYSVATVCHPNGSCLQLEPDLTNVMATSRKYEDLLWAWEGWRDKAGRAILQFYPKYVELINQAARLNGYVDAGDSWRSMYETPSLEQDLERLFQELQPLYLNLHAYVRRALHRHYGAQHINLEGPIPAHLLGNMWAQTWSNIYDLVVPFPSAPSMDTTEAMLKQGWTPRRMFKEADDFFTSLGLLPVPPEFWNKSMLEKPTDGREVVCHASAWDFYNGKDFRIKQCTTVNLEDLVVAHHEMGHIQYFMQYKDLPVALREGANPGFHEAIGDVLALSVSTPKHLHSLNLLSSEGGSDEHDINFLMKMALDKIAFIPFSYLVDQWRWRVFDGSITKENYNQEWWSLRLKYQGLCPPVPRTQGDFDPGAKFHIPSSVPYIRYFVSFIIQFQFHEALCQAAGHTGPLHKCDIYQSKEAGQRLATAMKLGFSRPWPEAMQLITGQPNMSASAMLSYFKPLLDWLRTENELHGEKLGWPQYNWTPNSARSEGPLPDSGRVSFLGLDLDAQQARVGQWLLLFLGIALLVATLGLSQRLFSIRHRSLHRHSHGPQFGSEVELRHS

Structure (SMILES): CC(C)C[C@H](NC(=O)[C@@H](NC(=O)[C@@H](N)CC(C)C)C(C)C)C(=O)O [Tripeptide, Leu-Val-Leu, reference compound] (H-Leu-Val-Leu-OH)
- IC50 ([1]; comparison samples of Table 1): 1700 nM

Structure (SMILES): CC[C@H](C)[C@H](NC(=O)[C@H](Cc1c[nH]cn1)NC(=O)[C@@H](NC(=O)[C@@H]1CCCN1)[C@@H](C)O)C(=O)N[C@@H](CCCCN)C(=O)N[C@@H](Cc1c[nH]c2ccccc12)C(=O)NCC(=O)N[C@@H](CC(=O)O)C(=O)O [Peptide (I), Pro-Thr-His-Ile-Lys-Trp-Gly-Asp] (H-PTHIKWGD-OH)
- LD50 (ICR mice): greater than 10 mg/kg
- LD50 (Wistar rats): greater than 10 mg/kg
- IC50 ([1]; sample origin: Fish): 700 nM
- IC50 ([1]; sample origin: Peptide Synthesis): 600 nM
